The molecules below were run against T1, ACE extracted from rabbit lungs (Oryctolagus cuniculus, UniProt P12822) (assay: inhibition of ACE activity in vitro (hippurylhistidylleucine substrate; procedure of Cushman et al.)). Conditions: borate buffer with sodium chloride, pH 8.3, 37° C., 30 minutes, hippuric acid by UV 228 nm.
T1 construct: solutions of ACE extracted from rabbit lungs; from tissue; host or cells: rabbit lung
T1 sequence (P12822 34-1310): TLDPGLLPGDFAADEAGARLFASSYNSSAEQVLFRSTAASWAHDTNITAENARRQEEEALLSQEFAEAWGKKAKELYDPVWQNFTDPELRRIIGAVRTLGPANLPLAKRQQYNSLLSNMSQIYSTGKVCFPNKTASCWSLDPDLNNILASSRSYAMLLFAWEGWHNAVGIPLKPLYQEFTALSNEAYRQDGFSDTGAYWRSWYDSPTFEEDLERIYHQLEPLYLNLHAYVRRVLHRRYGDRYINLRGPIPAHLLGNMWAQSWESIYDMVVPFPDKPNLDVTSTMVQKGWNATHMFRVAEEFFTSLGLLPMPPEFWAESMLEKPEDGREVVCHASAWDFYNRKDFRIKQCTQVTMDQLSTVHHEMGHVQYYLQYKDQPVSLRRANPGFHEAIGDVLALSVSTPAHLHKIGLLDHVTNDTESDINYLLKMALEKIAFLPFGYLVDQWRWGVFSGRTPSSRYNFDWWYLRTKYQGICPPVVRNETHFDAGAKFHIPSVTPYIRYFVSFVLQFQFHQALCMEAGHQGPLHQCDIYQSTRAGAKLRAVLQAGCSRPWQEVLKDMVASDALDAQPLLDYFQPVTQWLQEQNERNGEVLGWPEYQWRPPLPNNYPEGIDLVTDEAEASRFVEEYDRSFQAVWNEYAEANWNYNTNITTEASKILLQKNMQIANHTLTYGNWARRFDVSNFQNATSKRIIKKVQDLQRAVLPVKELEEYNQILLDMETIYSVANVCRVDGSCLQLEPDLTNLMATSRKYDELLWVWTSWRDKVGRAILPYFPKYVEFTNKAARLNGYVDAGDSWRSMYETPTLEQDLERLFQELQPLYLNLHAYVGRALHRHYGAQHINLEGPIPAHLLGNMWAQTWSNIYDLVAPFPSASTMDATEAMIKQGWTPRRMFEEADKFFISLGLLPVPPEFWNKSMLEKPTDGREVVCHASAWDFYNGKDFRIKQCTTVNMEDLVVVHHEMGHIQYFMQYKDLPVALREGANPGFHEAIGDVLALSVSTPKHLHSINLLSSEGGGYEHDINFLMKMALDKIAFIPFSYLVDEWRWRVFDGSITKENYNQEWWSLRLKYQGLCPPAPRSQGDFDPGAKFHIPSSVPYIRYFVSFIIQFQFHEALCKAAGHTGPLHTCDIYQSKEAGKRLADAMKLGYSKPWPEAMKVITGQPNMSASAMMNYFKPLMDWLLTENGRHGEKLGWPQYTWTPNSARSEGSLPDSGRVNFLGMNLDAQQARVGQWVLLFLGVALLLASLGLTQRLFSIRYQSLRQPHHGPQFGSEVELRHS
Format: biochemical
Experimental: As noted above, the compounds of the present invention have the ability to inhibit the activity of ACE, the enzyme which converts angiotensin I to angiotensin II and also inactivates bradykinin. […] W. Cushman et al. [Biochemical Pharmachology, 20, 1637 (1971)]. […] The enzymatic reaction was allowed to proceed at 37° C. for 30 minutes, after which time the reaction was terminated by adding 1N aqueous hydrochloric acid. […] The residual hippuric acid was dissolved in water. The amount of hippuric acid in the resulting aqueous solution was determined by the absorbency to ultraviolet radiation at 228 nm. These values were then plotted to form a curve indicating the relationship between the amount of hippuric acid formed and the concentration of the test compound. The IC50 value can be obtained by reading on this curve the concentration of the test compound which reduces the amount of hippuric acid formed to one half of that formed when no test compound is present.
`O=C(O)CN1CC(c2ccccc2)SCC(NC(CCc2ccccc2)C(=O)O)C1=O` (single isomer, unassigned) [C] gave an IC50 of 2.4 nM. For `O=C(O)CN1CC(c2ccsc2)SCC(NC(CCc2ccccc2)C(=O)O)C1=O` (single isomer, unassigned) [D], the IC50 was 2.5 nM. Molecule `O=C(O)CN1CC(c2cccs2)SCC(NC(CCc2ccccc2)C(=O)O)C1=O` (single isomer, unassigned) [E] has an IC50 of 2.4 nM. In the case of `O=C(O)CN1CC(c2ccco2)SCC(NC(CCc2ccccc2)C(=O)O)C1=O` (single isomer, unassigned) [F], the IC50 is reported as 3 nM. Molecule `O=C(O)CN1CC(c2cccc3ccccc23)SCC(NC(CCc2ccccc2)C(=O)O)C1=O` (single isomer, unassigned) [H] has an IC50 of 1.6 nM. `O=C(O)CN1CC(c2ccc3ccccc3c2)SCC(NC(CCc2ccccc2)C(=O)O)C1=O` (single isomer, unassigned) [I] showed an IC50 of 2 nM. `O=C(O)CN1C(=O)[C@@H](N[C@@H](CCc2ccccc2)C(=O)O)CSC[C@H]1c1ccccc1` [A] was tested, and the IC50 was 1.1 nM. `CC(C)[C@@H]1CSC[C@H](N[C@@H](CCc2ccccc2)C(=O)O)C(=O)N1CC(=O)O` [B] gave an IC50 of 1.6 nM. In the case of `O=C(O)CN1C(=O)[C@@H](N[C@@H](CCc2ccccc2)C(=O)O)CSC[C@H]1c1cccs1` [G], the IC50 is reported as 1.4 nM. With `C[C@@H]1CSC[C@H](N[C@@H](CCc2ccccc2)C(=O)O)C(=O)N1CC(=O)O` [J] the IC50 was 3 nM. `O=C(O)CN1C(=O)[C@@H](N[C@@H](CCc2ccccc2)C(=O)O)CSC[C@@H]1Cc1ccccc1` [K] was tested, and the IC50 was 1.3 nM.

Reference: US4699905A, “Perhydrothiazepine derivatives, their preparation and their therapeutic use” (Sankyo Company, Limited, priority 1984, dated 1987)
